Data set [1] concerns SH-SY5Y. In words: cells. The note with it: Homo sapiens, 24 h, read-out: LD50.
Description: Cytotoxicity against human SH-SY5Y cells assessed as lethal dose measured after 24 hrs by propidium iodide staining based fluorescent assay
A short description of data set [2]: Toxicity in overnight fasted C57BL/6 mouse model of cerulein-induced acute pancreatitis assessed as reversal of edema at 0.3 mg/kg, ip dosed 14 hrs after cerulein injection and measured 10 hrs after compound administration. The note with it: in vivo. It counts as organism-based.
The subject of data set [3] is Mus musculus. Briefly: Anti-inflammatory activity against overnight fasted cerulein-induced acute pancreatitis C57BL/6 mouse model assessed as reversal of pancreatic damage at 0.3 mg/kg, ip dosed 14 hrs after cerulein injection and measured 10 hrs after compound administration. Format: functional, organism-based.
Data set [4] in a line: Drug uptake in overnight fasted pancreas of cerulein-induced acute pancreatitis C57BL/6 mouse model at 0.1 mg/kg, ip dosed 14 hrs after cerulein injection and measured 10 hrs after compound administration. It counts as ADME, organism-based. The note with it: in vivo.
Data set [5] is described as follows: Toxicity in overnight fasted C57BL/6 mouse model of cerulein-induced acute pancreatitis assessed as increase in body weight at 0.3 mg/kg, ip dosed 14 hrs after cerulein injection and measured 10 hrs after compound administration. It counts as organism-based. The note with it: in vivo.
Data set [6] in a line: Toxicity in overnight fasted C57BL/6 mouse model of cerulein-induced acute pancreatitis assessed as increase in body weight at 0.1 mg/kg, ip dosed 14 hrs after cerulein injection and measured 10 hrs after compound administration. It counts as organism-based. The note with it: in vivo.
Data set [7] deals with Mus musculus. In words: Anti-inflammatory activity against overnight fasted cerulein-induced acute pancreatitis C57BL/6 mouse model assessed as reversal of reversal of neutrophil infiltration at 0.3 mg/kg, ip dosed 14 hrs after cerulein injection and measured 10 hrs after compound administration. Format: functional, organism-based.
The test system of data set [8] is Mus musculus. In words: Anti-inflammatory activity against overnight fasted cerulein-induced acute pancreatitis C57BL/6 mouse model assessed as reduction in severity of pancreatitis at 0.1 to 0.3 mg/kg, ip dosed 14 hrs after cerulein injection and measured 10 hrs after compound administration. Format: functional, organism-based. The note with it: dose 0.1-0.3 mg/kg.

The subject of data set [9] is Mus musculus. Briefly: Anti-inflammatory activity against overnight fasted cerulein-induced acute pancreatitis C57BL/6 mouse model assessed as reduction in inflammatory cells at 0.1 to 0.3 mg/kg, ip dosed 14 hrs after cerulein injection and measured 10 hrs after compound administration. It counts as functional, organism-based. The note with it: dose 0.1-0.3 mg/kg.
The subject of data set [10] is Mus musculus. In words: Anti-inflammatory activity against overnight fasted cerulein-induced acute pancreatitis C57BL/6 mouse model assessed as reduction in parenchymal atrophy at 0.1 to 0.3 mg/kg, ip dosed 14 hrs after cerulein injection and measured 10 hrs after compound administration. Format: functional, organism-based. The note with it: dose 0.1-0.3 mg/kg.

Active and inactive are the calls of the source. No cut-off for these calls is given here.

Consider `CC12CC3CC(NC(=O)N[C@H]4CC[C@H](Oc5ccc(C(=O)O)cc5)CC4)(CC(C1)c1ccccc13)C2`, for which, in data set [1], the CC50 is more than 100 µM.

On to `O=C(NC12CC3CC(F)(CC(C1)c1ccccc13)C2)N[C@H]1CC[C@H](Oc2ccc(C(=O)O)cc2)CC1`, for which the CC50 in data set [1] is more than 100 µM.

Take `O=C(NC12CC3CC(Cl)(CC(C1)c1ccccc13)C2)N[C@H]1CC[C@H](Oc2ccc(C(=O)O)cc2)CC1`: the Activity entry was “Non-Toxic” in data set [2], “Toxic” in data set [5] and “Toxic” in data set [6]. Also, the outcome in [3], in data set [7], in data set [8], in [9] and in data set [10] was Active. In [4], the Drug uptake entry is recorded as “Not Active”. Moreover, in data set [1], the CC50 is more than 100 µM.

The values above are taken from ChEMBL document CHEMBL5036312, “From the Design to the In Vivo Evaluation of Benzohomoadamantane-Derived Soluble Epoxide Hydrolase Inhibitors for the Treatment of Acute Pancreatitis” (J Med Chem, 2021).
